Assay results taken from US8765717B2 (Monte Verde S.A., priority 2008, dated 2014).

Experiments:
[1] = system: patients suffering from primary hip or knee arthritis (I, II or III); assay: Clinical trial: Lequesne algo-functional index of severity; format: in vivo, humans; conditions: for Decrease in the Lequesne scale in the 25% of patients with enhanced recovery / Decrease in the Lequesne scale in the 25% of patients with enhanced recovery (percent): 25% of the patients
Procedure: (§1) Data from a clinical trial with humans is provided herein. The trial was performed with three arms, at random and blind, of patients suffering from different degrees of primary hip or knee arthritis (I, II or III). […] Pain and joint function performance was checked every fifteen days by using the pain VAS and the Lequesne algo-functional index of severity. The VAS assesses the pain in the knee by a visual scale of 100 mm with a total of 10 divisions wherein 0 means no pain and 10 means the deepest pain. […] The severity index is given by the addition of the scores obtained in each item, wherein 24 is the maximum possible score. The higher the index, the more severe is the clinical picture.

[2] = system: patients suffering from primary hip or knee arthritis (I, II or III); assay: Clinical trial: pain VAS; format: in vivo, humans; conditions: check-up visits every fifteen days
Procedure: as §1

[3] = 37° C.; cited from earlier work
[4] = patients in clinical trials; cited from earlier work

Row | Compound | Decrease in the Lequesne scale in the 25% of patients with enhanced recovery ([1]; 90 days oral treatment) | Decrease in the Lequesne scale in the 25% of patients with enhanced recovery (percent) ([1]; 90 days oral treatment) | Average improvement in the Lequesne index in 50% of the patients ([1]; 50% of the patients, 90 days oral treatment) | Lequesne scale (Algo-functional index) average decrease ([1]; 90 days, single daily oral dose, 1,500 mg glucosamine sulphate and/or 15 mg meloxicam) | Time after starting treatment at which VAS value showed the highest reduction [2] | pKa [3] | Occurrence of adverse gastrointestinal events (bleeding, perforation or ulcers) versus other nonsteroidal anti-inflammatory drugs [4]
1 | N[C@H]1C(O)O[C@H](CO)[C@@H](O)[C@@H]1O (stereo partly drawn) [glucosamine, 2-amin-2 desoxy-alpha-D-glucose] | 3.75 scores | 32% | 1.5 scores | 11% | 30 days | 6.91 | –
2 | Cc1cnc(NC(=O)C2=C(O)c3ccccc3S(=O)(=O)N2C)s1 [meloxicam, (8E)-8-[hydroxy-[(5-methyl-1,3-thiazol-2-yl)amino]methylidene]-9-methyl-10,10-dioxo-10λ^6-thia-9-azabicyclo[4.4.0]deca-1,3,5-trien-7-one] | 4.5 scores | 38% | – | – | 15 days | – | less frequent
